One test deals with LNCaP cells. Put plainly: LNCaP cell viability assay (MTS). It is filed as cell-based. Conditions: Homo sapiens, LNCaP, 48 h, LNCaP cell line. On the procedure:
LNCaP cell line was used for the cell viability assay. LNCaP cells were plated in 96-well plates at a density of 5000 cells per well. After 24 hours of plating, the cells were treated with increasing doses of compound (e.g., compounds 1-269) ranging from 1 μM to 80 μM. Relative cell numbers were analyzed after 48 hours using 3-(4,5-dimethylthiazol-2-yl)-5-(3-carboxymethoxyphenyl)-2-(4-sulfophenyl)-2H-tetrazolium (MTS) assay (Promega) according to the manufacturer's instructions.
The cell viability data was analyzed with GraphPad Prism software. The values were log transformed and analyzed with non-linear regression (curve-fit) using log(inhibitor) vs. response-variable slope (four parameters) and constraining the bottom to equal zero. Unless otherwise indicated, the GI50 values provided in Table 113 correspond to the LNCaP cell viability assays.
Consider `COc1ccc([C@@H]2[C@@H](CNS(=O)(=O)c3ccc(OC(F)(F)F)cc3)CCN2C)cc1` (racemic) [Compound 106, Rac-N-(((2S,3R)-2-(4-methoxyphenyl)-1-methylpyrrolidin-3-yl)methyl)-4-(trifluoromethoxy)benzenesulfonamide], for which the 50% growth inhibitory concentration (GI50) was 24 µM.

Regarding `O=S(=O)(NC(c1cc(Cl)cc(Cl)c1)C1CCCCC1)c1ccc(OC(F)(F)F)cc1` (single isomer, unassigned) [Compound 140, N-(cyclohexyl(3,5-dichlorophenyl)methyl)-4-(trifluoromethoxy)benzenesulfonamide], the GI50 was 19 µM.

In turn, `O=S(=O)(NC(CC1CC1)c1ccc(F)cc1Br)c1ccc(OC(F)(F)F)cc1` (single isomer, unassigned) [Compound 142a, N-(1-(2-bromo-4-fluorophenyl)-2-cyclopropylethyl)-4-(trifluoromethoxy)benzenesulfonamide] displayed a GI50 of 80 µM.

`CN(C)CC(NS(=O)(=O)c1ccc(OC(F)(F)F)cc1)c1ccc(Cl)c(Cl)c1` (single isomer, unassigned) [Compound 148, N-(1-(3,4-dichlorophenyl)-2-(dimethylamino)ethyl)-4-(trifluoromethoxy)benzenesulfonamide]: the 50% growth inhibitory concentration (GI50) is 12.7 µM.

As for `CN(C)CC(NS(=N)(=O)c1ccc(OC(F)(F)F)cc1)c1ccc(Cl)c(Cl)c1` (single isomer, unassigned) [Compound 165a, N-(1-(3,4-dichlorophenyl)-2-(dimethylamino)ethyl)-4-(trifluoromethoxy)benzenesulfonimidamide], halving of growth (GI50) required 46.3 µM.

Compound `CN(C)CC(NS(=O)(=O)c1ccc(Oc2ccccc2)cc1)c1ccc(Cl)c(Cl)c1` (single isomer, unassigned) [Compound 170, N-(1-(3,4-dichlorophenyl)-2-(dimethylamino)ethyl)-4-phenoxybenzenesulfonamide] came in with a concentration for 50% growth inhibition (GI50) of 13.3 µM.

`CN(C)CC(NS(=O)(=O)c1ccc(OC(F)(F)F)cc1)c1ccc(Cl)cc1` (single isomer, unassigned) [Compound 179, N-(1-(4-chlorophenyl)-2-(dimethylamino)ethyl)-4-(trifluoromethoxy)benzenesulfonamide]: the GI50 worked out at 43.1 µM.

`CN(C)CC(NS(=O)(=O)c1ccc(-c2ccccc2)cc1)c1ccc(Cl)c(Cl)c1` (single isomer, unassigned) [Compound 195, N-(1-(3,4-dichlorophenyl)-2-(dimethylamino)ethyl)-[1,1′-biphenyl]-4-sulfonamide] registered a GI50 of 11.9 µM.

`CN(C)CC(NS(=O)(=O)c1cccc(-c2ccccc2)c1)c1ccc(Cl)c(Cl)c1` (single isomer, unassigned) [Compound 197, N-(1-(3,4-dichlorophenyl)-2-(dimethylamino)ethyl)-[1,1′-biphenyl]-3-sulfonamide]: the concentration for 50% growth inhibition (GI50) was 19.3 µM.

`CCCc1ccc(S(=O)(=O)NC(CN(C)C)c2ccc(Cl)c(Cl)c2)cc1` (single isomer, unassigned) [Compound 199, N-(1-(3,4-dichlorophenyl)-2-(dimethylamino)ethyl)-4-propylbenzenesulfonamide] returned a 50% growth inhibitory concentration (GI50) of 14.4 µM.

Turning to `CN(C)CC(NS(=O)(=O)c1ccc(OC(F)(F)F)c(Cl)c1)c1ccc(Cl)c(Cl)c1` (single isomer, unassigned) [Compound 201, 3-chloro-N-(1-(3,4-dichlorophenyl)-2-(dimethylamino)ethyl)-4-(trifluoromethoxy)benzenesulfonamide], the 50% growth inhibitory concentration (GI50) was found to be 22.8 µM.

For `CN(C)C[C@@H](NS(=O)(=O)c1ccc(OC(F)(F)F)c([N+](=O)[O-])c1)c1ccc(Cl)c(Cl)c1` (single isomer, unassigned) [Compound 203, N-(1-(3,4-dichlorophenyl)-2-(dimethylamino)ethyl)-3-nitro-4-(trifluoromethoxy)benzenesulfonamide], the 50% growth inhibitory concentration (GI50) was 1.4 µM.

In the case of `O=S(=O)(NC(CN1CC2CC1CN2)c1ccc(Cl)c(Cl)c1)c1ccc(OC(F)(F)F)cc1` (single isomer, unassigned) [Compound 261a, N-(2-(2,5-diazabicyclo[2.2.1]heptan-2-yl)-1-(3,4-dichlorophenyl)ethyl)-4-(trifluoromethoxy)benzenesulfonamide], the concentration for 50% growth inhibition (GI50) was 10.5 µM.

Take `COc1ccc(S(=O)(=O)N2CCC(CNS(=O)(=O)c3ccc(OC(F)(F)F)cc3)CC2)cc1OC` [Compound 1, N-((1-((3,4-dimethoxyphenyl)sulfonyl)piperidin-4-yl)methyl)-4-(trifluoromethoxy)benzenesulfonamide]: growth was halved (GI50) at 63.8 µM.

The same test, now with this note: LNCaP cell line, 48 hours.
`O=S(=O)(NC(c1cc(Cl)cc(Cl)c1)C1CCCCC1)c1ccc(OC(F)(F)F)cc1` (single isomer, unassigned) [Compound 141, N-(cyclohexyl(3,5-dichlorophenyl)methyl)-4-(trifluoromethoxy)benzenesulfonamide]: the GI50 is 21.3 µM.

The compound `O=S(=O)(NC(CC1CC1)c1ccc(F)cc1Br)c1ccc(OC(F)(F)F)cc1` (single isomer, unassigned) [Compound 142b, N-(1-(2-bromo-4-fluorophenyl)-2-cyclopropylethyl)-4-(trifluoromethoxy)benzenesulfonamide] came in with a 50% growth inhibitory concentration (GI50) of 49.6 µM.

`CN(C)CC(NS(=O)(=O)c1ccc(OC(F)(F)F)cc1)c1ccc(Cl)c(Cl)c1` (single isomer, unassigned) [Compound 149, N-(1-(3,4-dichlorophenyl)-2-(dimethylamino)ethyl)-4-(trifluoromethoxy)benzenesulfonamide] registered a 50% growth inhibitory concentration (GI50) of 23.9 µM.

`CN(C)CC(NS(=N)(=O)c1ccc(OC(F)(F)F)cc1)c1ccc(Cl)c(Cl)c1` (single isomer, unassigned) [Compound 165b, N-(1-(3,4-dichlorophenyl)-2-(dimethylamino)ethyl)-4-(trifluoromethoxy)benzenesulfonimidamide] registered a 50% growth inhibitory concentration (GI50) of 53.8 µM.

The compound `CN(C)CC(NS(=O)(=O)c1ccc(Oc2ccccc2)cc1)c1ccc(Cl)c(Cl)c1` (single isomer, unassigned) [Compound 171, N-(1-(3,4-dichlorophenyl)-2-(dimethylamino)ethyl)-4-phenoxybenzenesulfonamide] gave a GI50 of 15.8 µM.

In the case of `CN(C)CC(NS(=O)(=O)c1ccc(Oc2ccc(C(F)(F)F)cc2)cc1)c1ccc(Cl)c(Cl)c1` (single isomer, unassigned) [Compound 172, N-(1-(3,4-dichlorophenyl)-2-(dimethylamino)ethyl)-4-(4-(trifluoromethyl)phenoxy)benzenesulfonamide], growth was halved (GI50) at 6.04 µM.

In turn, `CN(C)CC(NS(=O)(=O)c1ccc(Oc2ccc(C(F)(F)F)cc2)cc1)c1ccc(Cl)c(Cl)c1` (single isomer, unassigned) [Compound 173, N-(1-(3,4-dichlorophenyl)-2-(dimethylamino)ethyl)-4-(4-(trifluoromethyl)phenoxy)benzenesulfonamide] displayed a GI50 of 13 µM.

For `CN(C)CC(NS(=O)(=O)c1ccc(OC(F)(F)F)cc1)c1cccc(C(F)(F)F)c1` (single isomer, unassigned) [Compound 177, N-(2-(dimethylamino)-1-(3-(trifluoromethyl)phenyl)ethyl)-4-(trifluoromethoxy)benzenesulfonamide], it took 24.9 µM to inhibit growth by half (GI50).

As for `CN(C)CC(NS(=O)(=O)c1ccc(OC(F)(F)F)cc1)c1cccc(C(F)(F)F)c1` (single isomer, unassigned) [Compound 178, N-(2-(dimethylamino)-1-(3-(trifluoromethyl)phenyl)ethyl)-4-(trifluoromethoxy)benzenesulfonamide], the concentration for 50% growth inhibition (GI50) was 51.2 µM.

In turn, `CN(C)CC(NS(=O)(=O)c1ccc(OC(F)(F)F)cc1)c1ccc(Cl)cc1` (single isomer, unassigned) [Compound 180, N-(1-(4-chlorophenyl)-2-(dimethylamino)ethyl)-4-(trifluoromethoxy)benzenesulfonamide] came in with a GI50 of 51.3 µM.

The compound `CN(C)CC(NS(=O)(=O)c1ccc(-c2ccccc2)cc1)c1ccc(Cl)c(Cl)c1` (single isomer, unassigned) [Compound 196, N-(1-(3,4-dichlorophenyl)-2-(dimethylamino)ethyl)-[1,1′-biphenyl]-4-sulfonamide] returned a concentration for 50% growth inhibition (GI50) of 15.9 µM.

In the case of `CN(C)CC(NS(=O)(=O)c1cccc(-c2ccccc2)c1)c1ccc(Cl)c(Cl)c1` (single isomer, unassigned) [Compound 198, N-(1-(3,4-dichlorophenyl)-2-(dimethylamino)ethyl)-[1,1′-biphenyl]-3-sulfonamide], the GI50 stood at 12.5 µM.

`CCCc1ccc(S(=O)(=O)NC(CN(C)C)c2ccc(Cl)c(Cl)c2)cc1` (single isomer, unassigned) [Compound 200, N-(1-(3,4-dichlorophenyl)-2-(dimethylamino)ethyl)-4-propylbenzenesulfonamide]: the concentration for 50% growth inhibition (GI50) turned out to be 17.8 µM.

`CN(C)CC(NS(=O)(=O)c1ccc(OC(F)(F)F)c(Cl)c1)c1ccc(Cl)c(Cl)c1` (single isomer, unassigned) [Compound 202, 3-chloro-N-(1-(3,4-dichlorophenyl)-2-(dimethylamino)ethyl)-4-(trifluoromethoxy)benzenesulfonamide] displayed a concentration for 50% growth inhibition (GI50) of 21.6 µM.

For `CN(C)C[C@@H](NS(=O)(=O)c1ccc(OC(F)(F)F)c([N+](=O)[O-])c1)c1ccc(Cl)c(Cl)c1` (single isomer, unassigned) [Compound 204, N-(1-(3,4-dichlorophenyl)-2-(dimethylamino)ethyl)-3-nitro-4-(trifluoromethoxy)benzenesulfonamide], the GI50 turned out to be 1.14 µM.

`O=S(=O)(NC(CN1CC2CC1CN2)c1ccc(Cl)c(Cl)c1)c1ccc(OC(F)(F)F)cc1` (single isomer, unassigned) [Compound 261b, N-(2-(2,5-diazabicyclo[2.2.1]heptan-2-yl)-1-(3,4-dichlorophenyl)ethyl)-4-(trifluoromethoxy)benzenesulfonamide] registered a GI50 of 9.79 µM.
